This is an account of results in US20220033397A1, “PHARMACEUTICAL COMPOUNDS AND THEIR USE AS INHIBITORS OF UBIQUITIN SPECIFIC PROTEASE 19 (USP19)” (ALMAC DISCOVERY LIMITED, priority 2018, published 2022).

SMILES strings stand for the structures.

The assay addresses T1, Full-length USP19 (Homo sapiens, UniProt O94966).
T1 construct: Full-length USP19 was purchased from Boston Biochem (E-576); purchased Boston Biochem E-576
T1 sequence (O94966 1-1318): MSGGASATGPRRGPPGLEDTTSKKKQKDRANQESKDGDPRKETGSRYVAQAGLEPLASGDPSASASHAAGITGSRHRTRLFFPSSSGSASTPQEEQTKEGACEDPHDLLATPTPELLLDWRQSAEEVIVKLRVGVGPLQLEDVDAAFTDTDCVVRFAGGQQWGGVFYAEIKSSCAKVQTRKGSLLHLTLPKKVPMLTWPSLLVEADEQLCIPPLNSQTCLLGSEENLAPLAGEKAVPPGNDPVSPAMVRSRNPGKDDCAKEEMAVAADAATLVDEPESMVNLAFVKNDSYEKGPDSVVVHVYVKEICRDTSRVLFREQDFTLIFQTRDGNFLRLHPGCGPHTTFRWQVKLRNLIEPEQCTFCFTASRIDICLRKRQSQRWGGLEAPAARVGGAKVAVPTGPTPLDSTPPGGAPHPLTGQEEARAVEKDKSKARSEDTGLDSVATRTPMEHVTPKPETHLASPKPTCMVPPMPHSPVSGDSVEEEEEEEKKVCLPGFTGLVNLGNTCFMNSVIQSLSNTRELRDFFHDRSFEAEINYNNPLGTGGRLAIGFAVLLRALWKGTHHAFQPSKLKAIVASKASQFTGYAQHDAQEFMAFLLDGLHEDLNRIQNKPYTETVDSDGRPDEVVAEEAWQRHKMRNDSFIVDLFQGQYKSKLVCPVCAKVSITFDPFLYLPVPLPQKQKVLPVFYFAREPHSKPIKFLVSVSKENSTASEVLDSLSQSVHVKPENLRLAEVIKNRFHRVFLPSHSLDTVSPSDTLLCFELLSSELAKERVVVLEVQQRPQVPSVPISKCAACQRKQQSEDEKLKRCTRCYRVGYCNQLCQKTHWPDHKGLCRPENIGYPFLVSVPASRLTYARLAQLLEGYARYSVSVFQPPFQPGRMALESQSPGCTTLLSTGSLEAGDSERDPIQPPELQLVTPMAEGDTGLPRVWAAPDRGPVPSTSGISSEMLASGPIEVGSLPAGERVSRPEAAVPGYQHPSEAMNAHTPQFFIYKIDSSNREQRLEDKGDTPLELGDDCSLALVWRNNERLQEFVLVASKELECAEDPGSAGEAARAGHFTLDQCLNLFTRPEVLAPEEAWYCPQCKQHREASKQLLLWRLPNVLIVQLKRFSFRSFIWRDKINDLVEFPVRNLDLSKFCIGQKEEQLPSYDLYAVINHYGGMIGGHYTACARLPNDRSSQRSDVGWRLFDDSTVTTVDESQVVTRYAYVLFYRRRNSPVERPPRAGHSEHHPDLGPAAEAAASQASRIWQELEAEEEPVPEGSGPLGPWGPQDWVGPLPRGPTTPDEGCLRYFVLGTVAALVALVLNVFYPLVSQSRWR
In words: USP19 fluorescence polarisation (FP) homogeneous assay with Ubiquitin-Lys-TAMRA substrate. Type of assay: biochemical. As to conditions: 2.5 nM USP19, 30 min pre-incubation, average of at least two duplicate experiments. The procedure:
Unless otherwise stated, all other reagents were purchased from Sigma. Enzymatic reactions were conducted in black flat bottom polystyrene 384-well plates (Nunc) and 30 μL total volume. […] Inhibitors were stored as 10 mM DMSO stocks in an inert environment (low humidity, dark, low oxygen, room temperature) using the Storage Pod System and serial dilutions were prepared in buffer just prior to the assay (from 200 μM to 2 μM, 8-18 data point curve).
Following incubation at RT for 30 min, the enzymatic reactions were initiated by dispensing the Ub substrate (500 nM, 10 μL). FP was measured every 15 min over a period of 90 min (within the linear range of the assay) using a Synergy 4 plate reader (BioTek) exciting at 530 nm and measuring the amount of parallel and perpendicular light at 575 nm. The FP signal was subsequently normalised to the no compound control.

As for `O=C(N1CC[C@@](O)(Cn2cnc(-c3ccsc3)cc2=O)C2(CCCC2)C1)N1CCNC[C@H]1c1ccccc1` [Example 344, 3-(((S)-10-Hydroxy-7-((R)-2-phenylpiperazine-1-carbonyl)-7-azaspiro[4.5]decan-10-yl)methyl)-6-(thio-phen-3-yl)pyrimidin-4(3H)-one], the IC50 was less than 500 nM.

Take `COc1ccccc1-c1cc(=O)n(C[C@]2(O)CCN(C(=O)N3CCNC[C@H]3c3cccc(F)c3)CC23CCCC3)cn1` [Example 356, 3-(((S)-7-((R)-2-(3-Fluorophenyl)pipera-zine-1-carbonyl)-10-hydroxy-7-azaspiro[4.5]decan-10-yl)methyl)-6-(2-methoxyphenyl)pyri-midin-4(3H)-one]: the IC50 was less than 500 nM.

Turning to `O=C(NCc1ccc(F)c(F)c1)N1CC[C@@](O)(Cn2cnc(-c3ccccc3)cc2=O)C2(CCCC2)C1` [Example 304, (S)—N-(3,4-Difluorobenzyl)-10-hydroxy-10-((6-oxo-4-phenylpyrimidin-1(6H)-yl)methyl)-7-azaspiro[4.5]decane-7-carboxamide], the IC50 is less than 500 nM.

With `O=C(N1CCOC(F)(F)C1)N1CCC(O)(Cn2cnc(-c3ccccc3)cc2=O)C2(CCCC2)C1` (stereo not drawn) [Example 253, 3-((7-(2,2-Difluoromorpholine-4-carbonyl)-10-hydroxy-7-azaspiro[4.5]decan-10-yl)methyl)-6-phenylpyrimidin-4(3H)-one], the IC50 is 5000 to 50000 nM.

Consider `COc1ccc(-c2cc(=O)n(C[C@]3(O)CCN(C(=O)N4CCNC[C@H]4c4ccccc4)CC34CCCC4)cn2)s1` [Example 345, 3-(((S)-10-Hydroxy-7-((R)-2-phenylpiperazine-1-carbonyl)-7-azaspiro[4.5]decan-10-yl)methyl)-6-(5-methoxythiophen-2-yl)pyrimidin-4(3H)-one], for which the IC50 was less than 500 nM.

Turning to `Cc1nccn(CC2(O)CCN(C(=O)N3CCNC[C@H]3c3ccccc3)CC23CCCC3)c1=O` (stereo partly drawn) [Example 93, 1-((10-Hydroxy-7-((R)-2-phenylpiperazine-1-carbonyl)-7-azaspiro[4.5]decan-10-yl)methyl)-3-methylpyrazin-2(1H)-one], the half-inhibitory concentration (IC50) lay within 5000 to 50000 nM.

As for `Cn1nccc1-c1ccn(C[C@]2(O)CCN(C(=O)N3CCNC[C@H]3c3ccccc3)CC23CCCC3)c(=O)c1` [Example 328, 1-(((S)-10-Hydroxy-7-((R)-2-phenylpiperazine-1-carbonyl)-7-azaspiro[4.5]decan-10-yl)methyl)-4-(1-methyl-1H-pyrazol-5-yl)pyridin-2(1H)-one], the IC50 is less than 500 nM.

With `O=C(N1CCC(O)(Cn2cnc(-c3ccccc3)cc2=O)C2(CCCC2)C1)N1CCOCC1C1CCC1` (stereo not drawn) [Example 230, 3-((7-(3-Cyclobutylmorpholine-4-carbonyl)-10-hydroxy-7-azaspiro[4.5]decan-10-yl)methyl)-6-phenylpyrimidin-4(3H)-one], the IC50 was 50000 to 250000 nM.

Take `O=C(N1CCC(C(F)F)CC1)N1CCC(O)(Cn2cnc(-c3ccccc3)cc2=O)C2(CCCC2)C1` (stereo not drawn) [Example 241, 3-((7-(4-(Difluoromethyl)piperidine-1-carbonyl)-10-hydroxy-7-azaspiro[4.5]decan-10-yl)methyl)-6-phenylpyrimidin-4(3H)-one]: the half-inhibitory concentration (IC50) lay within 5000 to 50000 nM.

As to `O=C(N1CCC(O)(Cn2ccc3ccncc3c2=O)C2(CCCC2)C1)N1CCOC[C@H]1c1ccccc1` (stereo partly drawn) [Example 166, 2-((10-Hydroxy-7-((R)-3-phenylmorpholine-4-carbonyl)-7-azaspiro[4.5]decan-10-yl)methyl)-2,7-naphthyridin-1(2H)-one], the IC50 lay in the range of 500 to 5000 nM.

With `CNc1ncc2c(=O)n(CC3(O)CCN(C(=O)[C@H](C)CC(F)(F)F)CC34CCCC4)ccc2n1` (stereo partly drawn) [Example 57, 6-((10-Hydroxy-7-((R)-4,4,4-trifluoro-2-methylbutanoyl)-7-azaspiro[4.5]decan-10-yl)methyl)-2-(methylamino)pyrido[4,3-d]pyrimidin-5(6H)-one], the IC50 was in the range of 500 to 5000 nM.

For `O=C(N1CC[C@@](O)(Cn2cnc(Cl)cc2=O)C2(CCCC2)C1)N1CCOC[C@H]1c1ccccc1` [Example 220, 6-Chloro-3-(((S)-10-hydroxy-7-((R)-3-phenylmorpholine-4-carbonyl)-7-azaspiro[4.5]decan-10-yl)methyl)pyrimidin-4(3H)-one], the IC50 was less than 500 nM.

Take `COc1ccccc1-c1cc(=O)n(C[C@]2(O)CCN(C(=O)N3CCNC[C@H]3c3cc(F)ccc3F)CC23CCCC3)cn1` [Example 388, 3-(((S)-7-((R)-2-(2,5-Difluoro-phenyl)piperazine-1-carbonyl)-10-hydroxy-7-azaspiro [4.5]decan-10-yl)methyl)-6-(2-meth-oxyphenyl)pyrimi-din-4(3H)-one]: the IC50 is less than 500 nM.

Turning to `O=C1CN(C(=O)N2CC[C@@](O)(Cn3cnc(-c4ccccc4)cc3=O)C3(CCCC3)C2)[C@H](c2ccccc2)CN1` [Example 372, 3-(((S)-10-Hydroxy-7-((R)-5-oxo-2-phenylpiperazine-1-carbonyl)-7-azaspiro[4.5]decan-10-yl)methyl)-6-phenylpyrimidin-4(3H)-one], the IC50 was less than 500 nM.

In the case of `C[C@H](CC1CCCCC1)C(=O)N1CCC(O)(Cn2cnc3cc(F)c(Cl)cc3c2=O)C2(CCCC2)C1` (stereo partly drawn) [Example 155, 6-Chloro-3-((7-((R)-3-cyclohexyl-2-methylpropanoyl)-10-hydroxy-7-azaspiro[4.5]decan-10-yl)methyl)-7-fluoroquinazolin-4(3H)-one], the IC50 was less than 500 nM.

With `O=C(N1CC[C@@](O)(Cn2cnc(N3CCCC3)cc2=O)C2(CCCC2)C1)N1CCOC[C@H]1c1ccccc1` [Example 223, 3-(((S)-10-Hydroxy-7-((R)-3-phenylmorpholine-4-carbonyl)-7-azaspiro[4.5]decan-10-yl)methyl)-6-(pyrrolidin-1-yl)pyrimidin-4(3H)-one], the IC50 was less than 500 nM.

Turning to `O=C(N1CCC(C2CC2)C1)N1CCC(O)(Cn2cnc(-c3ccccc3)cc2=O)C2(CCCC2)C1` (stereo not drawn) [Example 237, 3-((7-(3-Cyclopropylpyrrolidine-1-carbonyl)-10-hydroxy-7-azaspiro[4.5]decan-10-yl)methyl)-6-phenylpyrimidin-4(3H)-one], the IC50 was in the range of 5000 to 50000 nM.

On to `C[C@H](CC(F)(F)F)C(=O)N1CCC(O)(CN2CCN(c3ccccc3)CC2=O)C2(CCCC2)C1` (stereo partly drawn) [Example 110, 1-((10-Hydroxy-7-((R)-4,4,4-trifluoro-2-methylbutanoyl)-7-azaspiro[4.5]decan-10-yl)methyl)-4-phenylpiperazin-2-one], for which the IC50 is less than 500 nM.

`C[C@H](CC(F)(F)F)C(=O)N1CCC(O)(Cn2cnc3cc(F)ccc3c2=O)C2(CCCC2)C1` (stereo partly drawn) [Example 156, 7-Fluoro-3-((10-hydroxy-7-((R)-4,4,4-trifluoro-2-methylbutanoyl)-7-azaspiro[4.5]decan-10-yl)methyl)quinazolin-4(3H)-one]: the IC50 was in the range of 5000 to 50000 nM.

In the case of `O=C(N1CC[C@@](O)(Cn2cnc(-c3ccccc3)cc2=O)C2(CCCC2)C1)N1CCSC[C@H]1c1cc(F)ccc1F` [Example 393, 3-(((S)-7-((R)-3-(2,5-Difluorophenyl)thio-morpholine-4-carbo-nyl)-10-hydroxy-7-azaspiro[4.5]decan-10-yl)methyl)-6-phenylpyrimidin-4(3H)-one], the IC50 was less than 500 nM.

Take `Cn1ccc(-c2cc(=O)n(C[C@]3(O)CCN(C(=O)N4CCNC[C@H]4c4ccccc4)CC34CCCC4)cn2)n1` [Example 371, 3-(((S)-10-Hydroxy-7-((R)-2-phenylpiperazine-1-carbonyl)-7-aza-spiro[4.5]decan-10-yl)methyl)-6-(1-methyl-1H-pyrazol-3-yl)pyrimidin-4(3H)-one]: the IC50 is less than 500 nM.
